Measured values taken from patent US20220396565A1 (Hoffmann-La Roche Inc., priority 2020, published 2022).
Structures can show the parent of a compound that is named as a salt.

System: Acinetobacter baumannii ATCC17978
Assay: Antimicrobial susceptibility testing: 90% growth inhibitory concentration (IC90) determination, Iso-Sensitest broth
Format: cell-based
Details: 90% growth inhibitory concentration, Acinetobacter baumannii ATCC17978, Iso-Sensitest broth; read-out: ATCC 17978 IC90
Procedure, shortened: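 Growth at OD600 was monitored every 20 min for 16 h at 35±2 °C, with bacteria inoculated at ~5×10^(5) CFU/ml into Iso-Sensitest medium. Compounds were tested as 10-point twofold dilutions (e.g. 10–0.02 μM final). The 90% inhibitory concentration comes from the log-phase growth.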

Structure (SMILES)	IC90 [µM]
Cc1cc(NC(=O)c2ncc(-c3ccc(OCC#N)c(F)c3F)n2C)ccc1C(=O)N1CCC(C(=O)N2CCOCC2)CC1 [Example 78, 5-(4-(cyanomethoxy)-2,3-difluorophenyl)-1-methyl-N-(3-methyl-4-(4-(morpholine-4-carbonyl)piperidine-1-carbonyl)phenyl)-1H-imidazole-2-carboxamide]	0.12
Cn1c(-c2ccc(OCC#N)c(F)c2F)cnc1C(=O)Nc1ccc(C(=O)N2CCC(C(=O)N3CC[C@@H](N)C3)CC2)c(Cl)c1 [Example 80, (R)-N-(4-(4-(3-aminopyrrolidine-1-carbonyl)piperidine-1-carbonyl)-3-chlorophenyl)-5-(4-(cyanomethoxy)-2,3-difluorophenyl)-1-methyl-1H-imidazole-2-carboxamide formate]	0.07
Cn1c(-c2ccc(OCC#N)c(F)c2F)cnc1C(=O)Nc1ccc(C(=O)N2CCC(C(=O)N3CCN[C@@H](CO)C3)CC2)c(Cl)c1 [Example 81, (R)-N-(3-chloro-4-(4-(3-(hydroxymethyl)piperazine-1-carbonyl)piperidine-1-carbonyl)phenyl)-5-(4-(cyanomethoxy)-2,3-difluorophenyl)-1-methyl-1H-imidazole-2-carboxamide 2,2,2-trifluoroacetate]	0.07
COc1ccc(-c2cnc(C(=O)Nc3ccc(C(=O)N4CCN(C(=O)C5(O)CCNCC5)CC4)c(Cl)c3)n2C)c(Cl)c1F [Example 113, 5-(2-chloro-3-fluoro-4-methoxy-phenyl)-N-[3-chloro-4-[4-(4-hydroxypiperidine-4-carbonyl)piperazine-1-carbonyl]phenyl]-1-methyl-imidazole-2-carboxamide formate]	0.08
COc1ccc(-c2cnc(C(=O)Nc3ccc(C(=O)N4CCC(C(=O)N5CCN[C@@H](CO)C5)CC4)c(Cl)c3)n2C)c(Cl)c1F [Example 116, 5-(2-chloro-3-fluoro-4-methoxy-phenyl)-N-[3-chloro-4-[4-[(3R)-3-(hydroxymethyl)piperazine-1-carbonyl]piperidine-1-carbonyl]phenyl]-1-methyl-imidazole-2-carboxamide]	0.13
COc1ccc(-c2cnc(C(=O)Nc3ccc(C(=O)N4CCN(C(=O)C5CCNCC5)CC4)c(C)c3)n2C)c(Cl)c1F [Example 117, 5-(2-chloro-3-fluoro-4-methoxy-phenyl)-1-methyl-N-[3-methyl-4-[4-(piperidine-4-carbonyl)piperazine-1-carbonyl]phenyl]imidazole-2-carboxamide formate]	0.15

Results, then the molecule that gave them:

IC90 [µM]	Structure (SMILES)
0.07	COc1ccc(-c2cnc(C(=O)Nc3ccc(C(=O)N4CCN(C(=O)CN(C)C)CC4)c(Cl)c3)n2C)c(F)c1F [Example 104, N-[3-chloro-4-[4-[2-(dimethylamino)acetyl]piperazine-1-carbonyl]phenyl]-5-(2,3-difluoro-4-methoxy-phenyl)-1-methyl-imidazole-2-carboxamide trifluoroacetate]
0.07	CNCC(=O)N1CCN(C(=O)c2ccc(NC(=O)c3ncc(-c4ccc(OC)c(F)c4F)n3C)cc2Cl)CC1 [Example 105, N-[3-chloro-4-[4-[2-(methylamino)acetyl]piperazine-1-carbonyl]phenyl]-5-(2,3-difluoro-4-methoxy-phenyl)-1-methyl-imidazole-2-carboxamide trifluoroacetate]
0.1	COc1ccc(-c2cnc(C(=O)Nc3ccc(C(=O)N4CCN(C(=O)[C@@H]5C[C@@H](O)CN5)CC4)c(Cl)c3)n2C)c(F)c1F [Example 106, N-[3-chloro-4-[4-[(2S,4R)-4-hydroxypyrrolidine-2-carbonyl]piperazine-1-carbonyl]phenyl]-5-(2,3-difluoro-4-methoxy-phenyl)-1-methyl-imidazole-2-carboxamide trifluoroacetate]
0.08	COc1ccc(-c2cnc(C(=O)Nc3ccc(C(=O)N4CCN(C(=O)[C@@H]5C[C@H](O)CN5)CC4)c(Cl)c3)n2C)c(F)c1F [Example 107, N-[3-chloro-4-[4-[(2S,4S)-4-hydroxypyrrolidine-2-carbonyl]piperazine-1-carbonyl]phenyl]-5-(2,3-difluoro-4-methoxy-phenyl)-1-methyl-imidazole-2-carboxamide trifluoroacetate]
0.11	COc1ccc(-c2cnc(C(=O)Nc3ccc(C(=O)N4CCN(C(=O)[C@@H]5C[C@H](O)CN5)CC4)c(Cl)c3)n2C)c(Cl)c1F [Example 114, 5-(2-chloro-3-fluoro-4-methoxy-phenyl)-N-[3-chloro-4-[4-[(2S,4S)-4-hydroxypyrrolidine-2-carbonyl]piperazine-1-carbonyl]phenyl]-1-methyl-imidazole-2-carboxamide formate]
0.14	COc1ccc(-c2cnc(C(=O)Nc3ccc(C(=O)N4CCN(C(=O)[C@H]5C[C@@H](O)CN5)CC4)c(Cl)c3)n2C)c(Cl)c1F [Example 115, 5-(2-chloro-3-fluoro-4-methoxy-phenyl)-N-[3-chloro-4-[4-[(2R,4R)-4-hydroxypyrrolidine-2-carbonyl]piperazine-1-carbonyl]phenyl]-1-methyl-imidazole-2-carboxamide formate]
0.07	Cn1c(-c2ccc(OCC#N)c(F)c2F)cnc1C(=O)Nc1ccc(C(=O)N2CCN(C(=O)C3CCNCC3)CC2)c(Cl)c1 [Example 196, N-(3-chloro-4-(4-(piperidine-4-carbonyl)piperazine-1-carbonyl)phenyl)-5-(4-(cyanomethoxy)-2,3-difluorophenyl)-1-methyl 1H-imidazole-2-carboxamide formate]
0.03	Cn1c(-c2ccc(OCC#N)c(F)c2F)cnc1C(=O)Nc1ccc(C(=O)N2CCN(C(=O)[C@@H]3CCCN3)CC2)c(Cl)c1 [Example 198, (S)-N-(3-chloro-4-(4-prolylpiperazine-1-carbonyl)phenyl)-5-(4-(cyanomethoxy)-2,3-difluorophenyl)-1-methyl-1H-imidazole-2-carboxamide 2,2,2-trifluoroacetate]
0.04	Cn1c(-c2ccc(OCC#N)c(F)c2F)cnc1C(=O)Nc1ccc(C(=O)N2CCN(C(=O)[C@@H]3CCNC3)CC2)c(Cl)c1 [Example 199, (R)-N-(3-chloro-4-(4-(pyrrolidine-3-carbonyl)piperazine-1-carbonyl)phenyl)-5-(4-(cyanomethoxy)-2,3-difluorophenyl)-1-methyl-1H-imidazole-2-carboxamide 2,2,2-trifluoroacetate]

Same assay, conditions: Acinetobacter baumannii, ATCC17978, read-out: ATCC 17978 IC90

Structure (SMILES)	IC90 [µM]
Cc1cc(NC(=O)c2ncc(-c3ccc(OCC#N)c(F)c3F)n2C)ccc1C(=O)N1CCC(C(=O)N2CC(N)C2)CC1 [Example 79, N-(4-(4-(3-aminoazetidine-1-carbonyl)piperidine-l-carbonyl)-3-methylphenyl)-5-(4-(cyanomethoxy)-2,3-difluorophenyl)-1-methyl-1H-imidazole-2-carboxamide 2,2,2-trifluoroacetate]	0.21
Cn1c(-c2ccc(OCC#N)c(F)c2F)cnc1C(=O)Nc1ccc(C(=O)N2CCN(C(=O)[C@H]3CCCN3)CC2)c(Cl)c1 [Example 197, (R)-N-(3-chloro-4-(4-prolylpiperazine-1-carbonyl)phenyl)-5-(4-(cyanomethoxy)-2,3-difluorophenyl)-1-methyl 1H-imidazole-2-carboxamide 2,2,2-trifluoroacetate]	0.07
